Laboratory results taken from article PMC4686731, “Screening of Pharmacologically Active Small Molecule Compounds Identifies Antifungal Agents Against Candida Biofilms” (Frontiers in Microbiology, 2015).
≈ marks a conversion by molar mass, not a printed value. Where a name gives a salt, the structure may show the parent alone. Read-outs that look alike come from different tables or passages of the source.

How the values were obtained:
[1] = tested on: C. albicans strain SC5314; experiment: High-throughput screening (HTS) with antifungal susceptibility test, CellTiter-Glo ATP read-out; assay type: cell-based, Candida albicans; conditions: for inhibition at 10 µM: Candida albicans, SC5314, 24 h
Method: (§1) The in vitro susceptibility of well-characterized wild-type C. albicans strain SC5314, which was provided by Prof. N.A.R. Gow (University of Aberdeen, Aberdeen, UK) was tested against 1280 compounds from the Library of Pharmacologically Active Compounds (LOPAC^1280TM, Sigma–Aldrich, USA). The screen was performed with C. albicans SC5314, and hits were further confirmed with the type strains C. dubliniensis MYA 577, C. glabrata ATCC 2001, C. kusei ATCC 6258, C. palapsilosis ATCC 22019, and C. tropicalis ATCC13803.
High-Throughput Screening was conducted using ASTs, according to the standard Clinical and Laboratory Standard Institute (CLSI) method ([Watamoto et al., 2009]). Inocula from 24-h yeast cultures on Sabouraud’s dextrose agar (SDA) (Gibco, UK) were adjusted to a turbidity equivalent to a 0.5 McFarland standard at 520 nm using a spectrophotometer. The suspension was diluted further with RPMI 1640 medium (Gibco, UK) to yield an inoculum concentration of 0.5 × 10^3 to 2.5 × 10^3 cells/mL. C. albicans was incubated with small-molecule compounds (10 μM) from LOPAC^1280TM, which total volume was 150 μL, in 96-well plates at 37°C for 24 h to evaluate the antifungal effects. After incubation, the viability of the fungal cells was determined using the CellTiter-Glo luminescent cell viability kit (Promega, USA). The CellTiter-Glo reagent (150 μL) was added to the medium and incubated for 15 min at room temperature with shaking at 900 rpm. The luminescent signals were detected using a luminometer (GloMax Discover System, Promega, USA). The resulting signal intensity corresponds to ATP amounts and thus to the number of viable microbial cells upon drug exposure ([Stylianou et al., 2014]). In all 96-well plates, 100 and 0% growth controls were included as microbes plus dimethyl sulfoxide (0.1%) and microbes plus amphotericin B (100 μM), respectively. All assays were performed at least as two biological replicates in triplicate. The ATP level of C. albicans cells, which corresponded to the cell metabolic activity and viability, was calculated for each compound using the following equation (Figure 1A).
Percentageinhibition=100 × 1-{(experimental-positivecontrolaverage)/(negativecontrolaverage-positivecontrolaverage)}
Wells were scored as hits if the percentage inhibition was >50%. Hit compounds were evaluated further to assess their antifungal effects.

C. albicans SC5314 [2] = experiment: AST broth microdilution, high cell density planktonic mode; assay type: cell-based, Candida albicans; conditions: 50% MIC, planktonic mode, 1 × 10^7 cells/mL, 24 h, read-out: Minimum inhibitory concentration (MIC)
Method: as §1
(§2) To investigate the antifungal effects of the hit compounds, ASTs were conducted using broth microdilution assays with high cell densities of the planktonic mode, adhesion phase and biofilm mode against Candida strains (C. albicans, C. dubliniensis, C. glabrata, C. kusei, C. palapsilosis, and C. tropicalis). First, high density cell (1 × 10^7 cells/mL) suspensions were added to the RPMI medium containing each hit compound (10–1000 μM) in 96-well plates and incubated at 37°C for 24 h. Next, the 50% minimum inhibitory concentrations (MICs) of high-density Candida planktonic cultures were determined using the CellTiter-Glo luminescent cell viability kit, as described above. The antifungal effects of the hit compounds were also evaluated in the adhesion phase and the biofilm mode, in the same manner as the planktonic mode. Candida biofilms were produced as described previously ([Jin et al., 2004]). In brief, Candida cells were grown on SDA at 37°C for 18 h. A loopful of the yeast culture was then inoculated into yeast nitrogen base (YNB) (Difco, USA) medium supplemented with 50 mM glucose. After overnight broth culture in a rotary shaker at 75 rpm, the cells were washed twice with 20 mL of PBS (pH 7.2, 0.1 M). The yeast cells were re-suspended in YNB supplemented with 100 mM glucose and adjusted to an optical density of 0.38 (1 × 10^7 cells/mL) at 520 nm. This standardized cell suspension was used immediately to form biofilms in the wells of 96-well polystyrene culture plates (Iwaki, Tokyo, Japan). First, the cells were incubated for 90 min at 37°C in a shaker at 75 rpm to allow yeast adherence to the well surface (adhesion phase), before the medium was aspirated and each well was washed once with PBS to remove non-adherent cells. YNB containing 100 mM glucose was then pipetted into each well and the plate was incubated at 37°C in a shaker at 75 rpm for 24 h. Non-adherent cells were removed by pipetting and the biofilms were washed twice with PBS. Following this biofilm growth phase, microscopic examination of the cultures was performed to exclude contamination. These ASTs were repeated on three different occasions.

C. albicans SC5314 [3] = experiment: AST, adhesion phase; assay type: cell-based; conditions: Candida albicans, SC5314, 1.5 h; adhesion phase (90 min adherence); read-out: Minimum inhibitory concentration (MIC)
Method: as §1, §2

[4] = tested on: C. albicans SC5314 biofilm; experiment: AST, biofilm mode; assay type: cell-based; conditions: Candida albicans, SC5314; biofilm mode (24 h biofilm); read-out: Minimum inhibitory concentration (MIC)
Method: as §1, §2

[5] = compound 10 μM, 0.5 × 10^3 to 2.5 × 10^3 cells/mL, 37°C, 24 h

Question: For `CCCCCCCCCCCCCCCC(=O)OC(CC(=O)O)C[N+](C)(C)C.[Cl-]` (racemic) [Palmitoyl-DL-carnitine chloride], which “percent inhibition of the metabolic activity (ATP level) of C. albicans” value [1, 5] is on record?
Answer: The value was 76.0%.

Question: Which MIC (C. albicans SC5314 [2]) does the source give for `C[C@@H]1[C@H](O)[C@@H](C)/C=C/C=C/C=C/C=C/C=C/C=C/C=C/[C@H](O[C@@H]2O[C@H](C)[C@@H](O)[C@H](N)[C@@H]2O)C[C@@H]2O[C@](O)(C[C@@H](O)C[C@@H](O)[C@H](O)CC[C@@H](O)C[C@@H](O)CC(=O)O[C@H]1C)C[C@H](O)[C@H]2C(=O)O` [AMB, amphotericin B] here?
Answer: The MIC was 3.9 µM (≈ 3.6 µg/mL).

Question: What about the MIC (C. albicans SC5314 [2]; Candida albicans, SC5314, 24 h) of the same compound?
Answer: The MIC was less than 3.9 µM.

Question: What about the MIC (C. albicans SC5314 [3]) of the same compound?
Answer: Its MIC is 15.6 µM (≈ 14.4 µg/mL).

Question: And the MIC [4]?
Answer: The MIC was 62.5 µM (≈ 57.8 µg/mL).

Question: `COc1ccc2c(c[n+](C)c3c4cc5c(cc4ccc23)OCO5)c1OC` [Chelerythrine chloride] was tested. Which inhibition at 10 µM ([1]; compound 10 μM, 0.5 × 10^3 to 2.5 × 10^3 cells/mL, 37°C, 24 h, read-out: percent inhibition of the metabolic activity (ATP level) of C. albicans) did it give?
Answer: The inhibition at 10 µM was 82.4%.

Question: With `Cc1cc(N)c2ccccc2[n+]1CCCCCCCCCC[n+]1c(C)cc(N)c2ccccc21.O.[Cl-].[Cl-]` [Dequalinium chloride hydrate] as the compound, how does the “percent inhibition of the metabolic activity (ATP level) of C. albicans” value [1, 5] read?
Answer: The value was 71.5%.

Question: For `CN[C@@H]1C[C@@H](c2ccc(Cl)c(Cl)c2)c2ccccc21` [Indatraline hydrochloride], which inhibition at 10 µM ([1]; read-out: percent inhibition of the metabolic activity (ATP level) of C. albicans, compound 10 μM, 0.5 × 10^3 to 2.5 × 10^3 cells/mL, 37°C, 24 h) is on record?
Answer: Its inhibition at 10 µM is 85.2%.
